The target of one assay is NS3h 2a[JFH1]. Description: NS3h unwinding inhibitors, genotype 1b and 2a – biochemical, real-time fluorescence, strains con1 and JFH1, set 3, selectivity assay for HCV NS3 helicase inhibitor project, late-stage follow-up (AID 602275). As to conditions: Recombinant NS3h.
Another assay deals with NS3h 1b[con1]. The description is as above. As to conditions: Recombinant NS3h.

pIC50: −log10 of the molar value. Values joined by “and” are separate entries in the source; they are usually repeats but may differ in a detail not shown here. Equal values may be shown once. Active and inactive are the calls of the source. How the calls were made is not given here.

A word on the pIC50: it is −log10 of the IC50, conventionally taken in molar units.

As to `COc1ccc2sc(NC(=O)c3ccc4ncsc4c3)nc2c1`, the result at NS3h 2a[JFH1] and on NS3h 1b[con1] was inactive.

For the molecule `COc1ccc(C(=O)Nc2ccc(-c3nc4ccc(-c5nc6ccc(C)c(S(=O)(=O)O)c6s5)cc4s3)cc2)cc1`, the pIC50 on NS3h 2a[JFH1] was 5.27; on NS3h 1b[con1], 5.00.

As to `Cc1ccc2nc(-c3ccc4nc(-c5ccc(NC(=O)c6ccccc6)cc5)sc4c3)sc2c1S(=O)(=O)O`, the pIC50 on NS3h 2a[JFH1] is 5.34; at NS3h 1b[con1] it was 4.97. On to `Cc1ccc2nc(-c3ccc4nc(-c5ccc(NC(=O)c6ccc7ncoc7c6)cc5)sc4c3)sc2c1S(=O)(=O)O`, for which the results for the pIC50 at NS3h 2a[JFH1] and on NS3h 1b[con1] were 5.19 and 5.44, respectively. `Cc1cc2sc(-c3ccc4nc(-c5ccc(N)cc5)sc4c3)nc2cc1S(=O)(=O)O`: the pIC50 is 5.41 at NS3h 2a[JFH1] and 5.15 at NS3h 1b[con1]. As to `CCOc1ccc2c(NNC(=O)c3cnccn3)c3c(nc2c1)CCCC3`, the IC50 entry at NS3h 2a[JFH1] was “inactive”. The result at NS3h 1b[con1] was inactive. Turning to `O=C(Nc1nc2ccc(Br)cc2s1)c1ccc2ncsc2c1`, the result at NS3h 2a[JFH1] and at NS3h 1b[con1] was inactive. As to `Cc1ccc2nc(-c3ccc4nc(-c5ccc(NC(=O)c6cc(C(F)(F)F)cc(C(F)(F)F)c6)cc5)sc4c3)sc2c1S(=O)(=O)O`, the pIC50 at NS3h 2a[JFH1] is 4.54.

As for `Cc1ccc(NC(=O)Nc2ccc(-c3nc4ccc(-c5nc6ccc(C)c(S(=O)(=O)O)c6s5)cc4s3)cc2)cc1`, the values for the pIC50 on NS3h 2a[JFH1] and at NS3h 1b[con1] were 5.40 and 5.28, respectively. With `Cc1ccc2nc(-c3ccc4nc(-c5ccc(NC(=O)c6ccc(N(C)C)cc6)cc5)sc4c3)sc2c1S(=O)(=O)O`, the pIC50 at NS3h 2a[JFH1] is 5.22; at NS3h 1b[con1], 4.96. For `Cc1ccc2nc(-c3ccc4nc(-c5ccc(NC(=O)Nc6ccccc6)cc5)sc4c3)sc2c1S(=O)(=O)O` the same measures were 5.22 and 5.39. As for `Cc1ccc2nc(-c3ccc4nc(-c5ccc(NC(=O)c6c(F)cccc6C(F)(F)F)cc5)sc4c3)sc2c1S(=O)(=O)O`, the IC50 entry at NS3h 2a[JFH1] was “inactive”. Moreover, the pIC50 on NS3h 1b[con1] was 4.77. Consider `COC(=O)c1ccc(C(=O)Nc2ccc(-c3nc4ccc(-c5nc6ccc(C)c(S(=O)(=O)O)c6s5)cc4s3)cc2)cc1`, for which the pIC50 on NS3h 2a[JFH1] is 5.62; at NS3h 1b[con1], 5.01. For `Cc1ccc2nc(-c3ccc(NC(=O)c4ccc(NC(=O)c5ccc(N)cc5)cc4)cc3)sc2c1S(=O)(=O)O` the same measures were 4.59 and 4.53. For `Cc1ccc2nc(-c3ccc4nc(-c5ccc6nc(-c7ccc(N)cc7)sc6c5)sc4c3)sc2c1S(=O)(=O)O` (tested in a mixture with another compound) the same measures were 5.28 and 4.89. The matching figures for `O=C(Nc1ccc(-c2nc3ccccc3[nH]2)cc1)c1ccc2ncsc2c1`: 4.61 and 4.60. Consider `Cc1ccc2nc(-c3ccc4nc(-c5ccc6nc(-c7ccc(N)cc7)sc6c5)sc4c3)sc2c1S(=O)(=O)O`, for which the pIC50 was 6.22 on NS3h 2a[JFH1] and 6.05 on NS3h 1b[con1]. Regarding `Cc1ccc2nc(-c3ccc4nc(-c5ccc(NC(=O)Nc6ccc(C(F)(F)F)cc6)cc5)sc4c3)sc2c1S(=O)(=O)O`, the results for the pIC50 on NS3h 2a[JFH1] and on NS3h 1b[con1] were 5.40 and 5.29, respectively. With `Cc1ccc2nc(-c3ccc4nc(-c5ccc(NC(=O)c6ccc(CNC(=O)OCC7c8ccccc8-c8ccccc87)cc6)cc5)sc4c3)sc2c1S(=O)(=O)O`, the pIC50 at NS3h 2a[JFH1] was 5.34; at NS3h 1b[con1] it was 5.36.

Turning to `Cc1ccc2nc(-c3ccc4nc(-c5ccc(NC(=O)c6ccc(C(F)(F)F)cc6)cc5)sc4c3)sc2c1S(=O)(=O)O`, the pIC50 at NS3h 2a[JFH1] is 5.64; on NS3h 1b[con1], 5.74.

For `Cc1cc(C(O)(c2ccc(Nc3ccccc3)cc2)c2ccc(Nc3ccc(S(=O)(=O)O)cc3)cc2)ccc1N` (stereo not given), the values for the pIC50 at NS3h 2a[JFH1] and at NS3h 1b[con1] were 4.77 and 4.54, respectively. On to `Cc1ccc2nc(-c3ccc(NC(=O)c4ccc(NS(=O)(=O)c5ccccc5)cc4)cc3)sc2c1S(=O)(=O)O`, for which the outcome at NS3h 2a[JFH1] and at NS3h 1b[con1] was inactive.

For the molecule `COc1ccc(NC(=O)Nc2ccc(-c3nc4ccc(-c5nc6ccc(C)c(S(=O)(=O)O)c6s5)cc4s3)cc2)cc1`, the values for the pIC50 at NS3h 2a[JFH1] and at NS3h 1b[con1] were 5.19 and 5.32, respectively. The matching figures for `Cc1ccc2nc(-c3ccc4nc(-c5ccc(NC(=O)c6cccc7ccccc67)cc5)sc4c3)sc2c1S(=O)(=O)O`: 5.41 and 5.35.

On to `Cc1ccc2nc(-c3ccc(NC(=O)c4ccc(NC(=O)c5ccc(NC(=O)OCC6c7ccccc7-c7ccccc76)cc5)cc4)cc3)sc2c1S(=O)(=O)O`, for which the figures for the pIC50 at NS3h 2a[JFH1] and on NS3h 1b[con1] were 5.72 and 5.60, respectively. Turning to `Cc1ccc2nc(-c3ccc4nc(-c5ccc(NC(=O)c6ccc7ccccc7c6)cc5)sc4c3)sc2c1S(=O)(=O)O`, the pIC50 at NS3h 2a[JFH1] was 5.66 and 5.36; at NS3h 1b[con1] it was 5.57 and 5.44. For `Cc1ccc2nc(-c3ccc4nc(-c5ccc(NCc6ccccc6)cc5)sc4c3)sc2c1S(=O)(=O)O`, the figures for the pIC50 at NS3h 2a[JFH1] and at NS3h 1b[con1] were 4.87 and 4.96, respectively. Consider `Cc1ccc2nc(-c3ccc4nc(NC(=O)c5ccc6ncoc6c5)sc4c3)sc2c1`, for which the IC50 result on NS3h 2a[JFH1] and at NS3h 1b[con1] was “inactive” throughout.

(Values after PubChem BioAssay AID602275 (The Scripps Research Institute Molecular Screening Center, 2012).)
